Columns and labels:
[1] = test system: procollagen; test: Procollagen expression in UV-irradiated 3D artificial skin; assay type: cell-based; details: 20 mJ UV, 0.1 ppm coumestrol or 100 ppm extract, relative to the non-UV-irradiated group as 100, UV-irradiated group 68.7%
Experimental: (§1) It is known that the skin in the climacteric period is vulnerable to skin irritation such as UV because of decreased skin thickness. 3D artificial skin was prepared and the effect of the germinated and fermented bean extract on the skin was tested after UV irradiation.
(§2) A matrix was prepared by mixing 2.64×10^5 fibroblasts in a collagen solution. After seeding 5×10^6 keratinocytes thereon, differentiation into artificial skin was induced by treating with 1.2 mM calcium. 2 weeks later, after irradiating 20 mJ UV on the cells and treating with 0.1 ppm coumestrol or 100 ppm germinated and fermented bean extract, the culture medium was recovered and the expression levels of MMP-1 and procollagen were measured in the same manner as in Test Example 5. The result is given in Table 2 relative to the non-UV-irradiated group as 100.

[2] = test system: climacteric mouse models induced by oophorectomy; test: Body weight change of oophorectomy-induced climacteric mice over 14 weeks; assay type: in vivo; details: oophorectomized hairless mice; feed for 14 weeks; extract 500 mg/kg, coumestrol 0.5 mg/kg; FIG. 1
Experimental: Female hairless mice weighing 26-27 g were used as experimental animals. The experimental animals were bred under a condition of 23±1° C., 40-60% humidity and 12-hour light/dark cycles. Basic feed and drinking water were provided ad libitum. On the previous day before blood taking, drinking water was provided only. Oophorectomy was conducted aseptically after anesthetizing 15-week-old hairless mice and disinfecting with 70% ethanol. After incising skin tissue about 2-3 cm along the spinal cord below one lateral dorsal part, the muscle and peritoneum at the part where an ovary is located were incised by 1.5 cm to expose the ovary. After removing the ovary, the peritoneum, muscle and skin were sutured using silk suture. The ovary at the opposite side was also removed by the same method. For a control group, a sham operation of incising the muscle and peritoneum but suturing without removal of the ovary was conducted. After the surgical operation, the mice were allowed to recover for a week. […] The administration dosage for the coumestrol administration group was determined such that the amount of coumestrol in the germinated and fermented bean was the same as that of the coumestrol 0.5 mg/kg administration group (content of coumestrol in the germinated and fermented bean extract=0.1%; 500 mg/kg×0.1%=0.5 mg/kg). […]

[3] = test system: MMP-1; test: MMP-1 expression in UV-irradiated 3D artificial skin; assay type: cell-based; details: 20 mJ UV, 0.1 ppm coumestrol or 100 ppm extract, relative to the non-UV-irradiated group as 100, UV-irradiated group 142.4%
Experimental: as §1, §2

[4] = test system: climacteric mouse models induced by oophorectomy; test: Bone density by dual-energy X-ray absorptiometry in oophorectomized mice; assay type: in vivo; details: oophorectomized hairless mice, 30 weeks old; feed for 14 weeks; extract 500 mg/kg, coumestrol 0.5 mg/kg; control group 0.1975, oophorectomy group 0.1821
Experimental: (§3) Female hairless mice weighing 26-27 g were used as experimental animals. The experimental animals were bred under a condition of 23±1° C., 40-60% humidity and 12-hour light/dark cycles. Basic feed and drinking water were provided ad libitum. On the previous day before blood taking, drinking water was provided only.
(§4) Oophorectomy was conducted aseptically after anesthetizing 15-week-old hairless mice and disinfecting with 70% ethanol. After incising skin tissue about 2-3 cm along the spinal cord below one lateral dorsal part, the muscle and peritoneum at the part where an ovary is located were incised by 1.5 cm to expose the ovary. After removing the ovary, the peritoneum, muscle and skin were sutured using silk suture. The ovary at the opposite side was also removed by the same method. For a control group, a sham operation of incising the muscle and peritoneum but suturing without removal of the ovary was conducted. […]
(§5) The experimental animals were divided into the control group (sham operation group) and an oophorectomy group. […] The administration dosage for the coumestrol administration group was determined such that the amount of coumestrol in the germinated and fermented bean was the same as that of the coumestrol 0.5 mg/kg administration group (content of coumestrol in the germinated and fermented bean extract=0.1%; 500 mg/kg×0.1%=0.5 mg/kg). […]

[5] = test system: climacteric mouse models induced by oophorectomy; test: Skin thickness measured with calipers in oophorectomized mice; assay type: in vivo; details: oophorectomized hairless mice, 30 weeks old; extract 500 mg/kg, coumestrol 0.5 mg/kg in feed for 14 weeks; FIG. 2
Experimental: as §3
as §4, with “method.” for “method. For a control group, a sham operation of incising the muscle and peritoneum but suturing without removal of the ovary was conducted.”
as §5
Skin thickness was measured for the same test group (30 weeks old) as that in Test Example 1 using calipers (HEPT, Cjina).

**Q.** With `O=c1oc2cc(O)ccc2c2oc3cc(O)ccc3c12` [coumestrol] as the compound, how does the Procollagen [1] read?
**A.** Its Procollagen is 82.4%.

**Q.** And the weight gain [2]?
**A.** The weight gain was “significantly less than that of the oophorectomy group”.

**Q.** What about the MMP-1 [3] of the same compound?
**A.** The MMP-1 was 122.8%.

**Q.** What about the Bone density [4] of the same compound?
**A.** Its Bone density is 0.1902 g/cm^2.

**Q.** What about the skin thickness [5] of the same compound?
**A.** Its skin thickness is “the same as that of the oophorectomy group”.

— patent publication US10959981B2, “Composition for preventing or treating climacteric symptoms comprising soybean extract comprising coumestrol as an active ingredient” (AMOREPACIFIC CORPORATION, priority 2014, dated 2021)
